Reference: ChEMBL document CHEMBL5291721, “A preclinical secondary pharmacology resource illuminates target-adverse drug reaction associations of marketed drugs” (Nat Commun, 2023)

Key:
[1] = target: T1, Muscarinic acetylcholine receptor M1 (Homo sapiens, UniProt P11229)
T1 sequence (P11229 whole entry): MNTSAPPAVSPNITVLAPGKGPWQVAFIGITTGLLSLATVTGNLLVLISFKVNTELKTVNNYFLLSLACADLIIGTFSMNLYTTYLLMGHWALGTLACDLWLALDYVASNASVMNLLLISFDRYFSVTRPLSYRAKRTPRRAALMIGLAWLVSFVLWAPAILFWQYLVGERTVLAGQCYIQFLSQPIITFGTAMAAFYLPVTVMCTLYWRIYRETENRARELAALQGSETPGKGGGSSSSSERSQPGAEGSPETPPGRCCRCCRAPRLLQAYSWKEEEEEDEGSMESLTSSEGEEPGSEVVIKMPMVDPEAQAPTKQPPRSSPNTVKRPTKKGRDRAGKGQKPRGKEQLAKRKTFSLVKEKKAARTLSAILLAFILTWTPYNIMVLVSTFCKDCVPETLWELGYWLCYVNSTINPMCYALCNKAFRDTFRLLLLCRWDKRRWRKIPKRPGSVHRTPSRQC

[2] = target: 5-hydroxytryptamine receptor 2A (Homo sapiens, UniProt P28223)
Sequence of 5-hydroxytryptamine receptor 2A (P28223 whole entry): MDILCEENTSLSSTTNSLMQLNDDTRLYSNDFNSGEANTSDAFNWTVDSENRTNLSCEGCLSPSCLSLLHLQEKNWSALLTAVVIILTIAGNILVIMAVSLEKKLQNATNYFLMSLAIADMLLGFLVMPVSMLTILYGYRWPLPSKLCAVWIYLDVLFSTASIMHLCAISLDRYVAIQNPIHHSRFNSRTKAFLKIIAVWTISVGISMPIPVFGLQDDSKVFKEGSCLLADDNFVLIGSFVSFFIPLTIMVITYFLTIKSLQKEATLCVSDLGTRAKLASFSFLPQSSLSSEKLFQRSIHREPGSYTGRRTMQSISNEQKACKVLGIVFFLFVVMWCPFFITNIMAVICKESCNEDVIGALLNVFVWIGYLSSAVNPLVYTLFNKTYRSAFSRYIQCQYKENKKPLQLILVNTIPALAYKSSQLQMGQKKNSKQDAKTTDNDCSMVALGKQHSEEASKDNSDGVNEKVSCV

Cannabinoid receptor 1 = Cannabinoid receptor 1 (Homo sapiens, UniProt P21554); type: functional
Sequence of Cannabinoid receptor 1 (P21554 whole entry): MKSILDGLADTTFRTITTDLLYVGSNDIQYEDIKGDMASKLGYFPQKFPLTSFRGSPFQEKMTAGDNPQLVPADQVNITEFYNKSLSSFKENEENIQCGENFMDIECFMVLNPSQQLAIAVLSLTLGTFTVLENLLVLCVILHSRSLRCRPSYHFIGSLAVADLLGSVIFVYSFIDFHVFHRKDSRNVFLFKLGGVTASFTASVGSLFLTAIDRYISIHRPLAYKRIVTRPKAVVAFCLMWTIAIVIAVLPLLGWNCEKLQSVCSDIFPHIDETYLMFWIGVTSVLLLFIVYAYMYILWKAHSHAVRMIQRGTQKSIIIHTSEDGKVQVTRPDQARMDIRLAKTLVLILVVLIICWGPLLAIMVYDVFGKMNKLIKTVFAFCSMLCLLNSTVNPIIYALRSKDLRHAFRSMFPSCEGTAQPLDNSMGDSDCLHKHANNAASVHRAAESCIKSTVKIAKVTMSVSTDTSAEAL

Substance-K receptor = target: T2, Substance-K receptor (Homo sapiens, UniProt P21452)
T2 sequence (P21452 whole entry): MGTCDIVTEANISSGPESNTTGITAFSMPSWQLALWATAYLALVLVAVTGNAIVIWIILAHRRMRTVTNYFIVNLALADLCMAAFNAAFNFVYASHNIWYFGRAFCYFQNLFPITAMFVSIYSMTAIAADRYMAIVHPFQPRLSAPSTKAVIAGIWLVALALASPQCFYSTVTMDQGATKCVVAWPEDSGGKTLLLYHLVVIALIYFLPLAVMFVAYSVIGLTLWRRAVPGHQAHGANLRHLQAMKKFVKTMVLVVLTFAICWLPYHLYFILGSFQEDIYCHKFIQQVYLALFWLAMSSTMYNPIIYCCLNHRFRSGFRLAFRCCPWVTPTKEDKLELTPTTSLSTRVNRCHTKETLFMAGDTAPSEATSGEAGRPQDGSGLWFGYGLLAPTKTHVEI

[3] = target: 5-hydroxytryptamine receptor 5A (Homo sapiens, UniProt P47898)
Sequence of 5-hydroxytryptamine receptor 5A (P47898 whole entry): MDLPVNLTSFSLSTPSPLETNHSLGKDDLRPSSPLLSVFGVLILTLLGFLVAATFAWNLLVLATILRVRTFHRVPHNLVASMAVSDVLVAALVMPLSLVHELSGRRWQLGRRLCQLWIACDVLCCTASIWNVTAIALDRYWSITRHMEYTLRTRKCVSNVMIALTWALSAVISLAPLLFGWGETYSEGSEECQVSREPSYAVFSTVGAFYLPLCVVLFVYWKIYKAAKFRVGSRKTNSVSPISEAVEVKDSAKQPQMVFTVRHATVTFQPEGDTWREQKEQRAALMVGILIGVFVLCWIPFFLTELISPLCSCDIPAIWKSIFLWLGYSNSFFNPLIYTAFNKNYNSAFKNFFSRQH

[4] = target: T3, Muscarinic acetylcholine receptor M4 (Homo sapiens, UniProt P08173)
T3 sequence (P08173 whole entry): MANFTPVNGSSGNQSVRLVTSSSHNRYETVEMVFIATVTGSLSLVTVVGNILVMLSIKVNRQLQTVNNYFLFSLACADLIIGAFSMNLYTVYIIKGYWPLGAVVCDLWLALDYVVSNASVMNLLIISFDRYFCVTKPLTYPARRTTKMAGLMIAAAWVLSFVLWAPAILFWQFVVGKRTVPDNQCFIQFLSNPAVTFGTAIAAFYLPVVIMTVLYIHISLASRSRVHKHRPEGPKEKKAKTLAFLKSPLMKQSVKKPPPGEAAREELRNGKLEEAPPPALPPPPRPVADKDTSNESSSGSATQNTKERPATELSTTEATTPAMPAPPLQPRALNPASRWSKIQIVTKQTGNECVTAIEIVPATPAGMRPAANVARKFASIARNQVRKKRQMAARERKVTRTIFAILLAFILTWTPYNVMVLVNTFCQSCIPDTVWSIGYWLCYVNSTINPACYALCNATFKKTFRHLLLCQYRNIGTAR

D(1B) dopamine receptor = D(1B) dopamine receptor (Homo sapiens, UniProt P21918)
Sequence of D(1B) dopamine receptor (P21918 whole entry): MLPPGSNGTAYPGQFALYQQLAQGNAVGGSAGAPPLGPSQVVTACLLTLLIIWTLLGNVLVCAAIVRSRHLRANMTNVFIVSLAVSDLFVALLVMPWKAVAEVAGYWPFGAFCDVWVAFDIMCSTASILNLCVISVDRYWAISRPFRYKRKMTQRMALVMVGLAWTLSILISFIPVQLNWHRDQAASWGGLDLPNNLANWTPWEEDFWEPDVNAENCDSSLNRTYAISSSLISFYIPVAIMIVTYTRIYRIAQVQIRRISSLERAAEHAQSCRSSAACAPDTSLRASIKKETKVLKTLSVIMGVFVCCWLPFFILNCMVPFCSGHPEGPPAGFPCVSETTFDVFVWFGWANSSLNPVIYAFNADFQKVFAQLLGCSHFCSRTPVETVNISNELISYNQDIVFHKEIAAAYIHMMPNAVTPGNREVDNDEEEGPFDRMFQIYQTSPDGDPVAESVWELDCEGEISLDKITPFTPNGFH

[5] = target: Hydroxycarboxylic acid receptor 2 (Homo sapiens, UniProt Q8TDS4)
Sequence of Hydroxycarboxylic acid receptor 2 (Q8TDS4 whole entry): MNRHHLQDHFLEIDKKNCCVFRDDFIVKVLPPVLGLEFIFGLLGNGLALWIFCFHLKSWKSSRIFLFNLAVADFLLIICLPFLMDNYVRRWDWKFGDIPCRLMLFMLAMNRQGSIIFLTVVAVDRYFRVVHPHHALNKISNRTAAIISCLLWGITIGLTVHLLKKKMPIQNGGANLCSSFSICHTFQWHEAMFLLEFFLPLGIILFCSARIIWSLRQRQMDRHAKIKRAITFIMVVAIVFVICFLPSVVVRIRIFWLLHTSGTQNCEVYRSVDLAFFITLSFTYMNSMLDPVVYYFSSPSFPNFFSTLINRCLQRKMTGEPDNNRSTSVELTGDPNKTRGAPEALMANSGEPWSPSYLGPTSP

[6] = target: Gamma-aminobutyric acid receptor subunit alpha-1/alpha-2/beta-2/gamma-2 (Homo sapiens, UniProt P14867+P18507+P47869+P47870); type: functional, cell-based
Sequence of Gamma-aminobutyric acid receptor subunit alpha-1/alpha-2/beta-2/gamma-2 (P14867 whole entry): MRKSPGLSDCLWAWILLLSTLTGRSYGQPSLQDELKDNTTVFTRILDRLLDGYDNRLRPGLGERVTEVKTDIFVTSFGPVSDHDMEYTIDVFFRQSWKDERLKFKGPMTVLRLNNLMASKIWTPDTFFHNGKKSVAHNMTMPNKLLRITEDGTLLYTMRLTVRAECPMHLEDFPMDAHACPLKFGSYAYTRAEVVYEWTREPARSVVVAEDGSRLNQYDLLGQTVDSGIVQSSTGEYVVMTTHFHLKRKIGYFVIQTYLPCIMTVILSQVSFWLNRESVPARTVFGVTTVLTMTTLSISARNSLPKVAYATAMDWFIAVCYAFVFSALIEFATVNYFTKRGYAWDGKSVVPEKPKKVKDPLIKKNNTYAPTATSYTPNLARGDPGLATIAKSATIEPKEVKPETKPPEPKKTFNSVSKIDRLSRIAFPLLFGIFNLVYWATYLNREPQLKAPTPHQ
Sequence of Gamma-aminobutyric acid receptor subunit alpha-1/alpha-2/beta-2/gamma-2 (P47870 whole entry): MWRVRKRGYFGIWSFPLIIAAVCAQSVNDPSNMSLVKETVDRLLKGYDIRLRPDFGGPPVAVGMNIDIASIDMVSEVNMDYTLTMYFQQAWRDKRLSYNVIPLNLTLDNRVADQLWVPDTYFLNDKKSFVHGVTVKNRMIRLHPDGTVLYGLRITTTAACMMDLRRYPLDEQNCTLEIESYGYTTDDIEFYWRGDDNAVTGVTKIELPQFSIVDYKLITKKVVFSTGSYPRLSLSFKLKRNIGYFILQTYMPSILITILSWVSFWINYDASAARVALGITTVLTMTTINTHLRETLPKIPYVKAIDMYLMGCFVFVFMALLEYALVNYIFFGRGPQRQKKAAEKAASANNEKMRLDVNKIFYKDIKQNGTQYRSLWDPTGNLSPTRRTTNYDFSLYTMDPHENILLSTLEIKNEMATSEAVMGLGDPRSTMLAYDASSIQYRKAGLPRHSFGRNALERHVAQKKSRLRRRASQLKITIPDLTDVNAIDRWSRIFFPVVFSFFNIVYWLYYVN
Sequence of Gamma-aminobutyric acid receptor subunit alpha-1/alpha-2/beta-2/gamma-2 (P18507 whole entry): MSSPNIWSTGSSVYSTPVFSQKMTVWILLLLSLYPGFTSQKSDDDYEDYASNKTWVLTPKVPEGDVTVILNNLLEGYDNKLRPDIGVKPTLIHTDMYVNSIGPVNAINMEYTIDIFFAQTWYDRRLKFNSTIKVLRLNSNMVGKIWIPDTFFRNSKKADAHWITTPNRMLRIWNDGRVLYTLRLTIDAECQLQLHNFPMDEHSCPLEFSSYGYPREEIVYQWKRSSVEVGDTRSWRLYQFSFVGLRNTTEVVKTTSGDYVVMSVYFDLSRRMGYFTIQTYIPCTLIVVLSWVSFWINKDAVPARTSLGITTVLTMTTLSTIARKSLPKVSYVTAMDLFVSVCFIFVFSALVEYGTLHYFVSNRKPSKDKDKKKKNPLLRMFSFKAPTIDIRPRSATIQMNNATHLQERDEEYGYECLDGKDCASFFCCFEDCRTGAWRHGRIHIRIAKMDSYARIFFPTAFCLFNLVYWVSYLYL
Sequence of Gamma-aminobutyric acid receptor subunit alpha-1/alpha-2/beta-2/gamma-2 (P47869 whole entry): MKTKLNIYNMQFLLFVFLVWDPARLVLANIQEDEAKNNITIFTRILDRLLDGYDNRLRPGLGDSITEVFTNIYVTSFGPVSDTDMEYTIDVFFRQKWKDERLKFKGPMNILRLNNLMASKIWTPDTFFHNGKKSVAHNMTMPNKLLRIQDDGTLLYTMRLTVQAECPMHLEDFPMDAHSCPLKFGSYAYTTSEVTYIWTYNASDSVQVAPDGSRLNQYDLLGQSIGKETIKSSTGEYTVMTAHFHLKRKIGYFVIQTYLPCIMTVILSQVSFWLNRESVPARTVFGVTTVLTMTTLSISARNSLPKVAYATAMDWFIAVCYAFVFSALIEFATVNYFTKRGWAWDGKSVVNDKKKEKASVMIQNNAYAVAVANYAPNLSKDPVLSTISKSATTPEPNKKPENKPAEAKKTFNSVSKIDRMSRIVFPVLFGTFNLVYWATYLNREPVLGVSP

[7] = target: T4, Type-2 angiotensin II receptor (Homo sapiens, UniProt P50052); type: functional
T4 sequence (P50052 whole entry): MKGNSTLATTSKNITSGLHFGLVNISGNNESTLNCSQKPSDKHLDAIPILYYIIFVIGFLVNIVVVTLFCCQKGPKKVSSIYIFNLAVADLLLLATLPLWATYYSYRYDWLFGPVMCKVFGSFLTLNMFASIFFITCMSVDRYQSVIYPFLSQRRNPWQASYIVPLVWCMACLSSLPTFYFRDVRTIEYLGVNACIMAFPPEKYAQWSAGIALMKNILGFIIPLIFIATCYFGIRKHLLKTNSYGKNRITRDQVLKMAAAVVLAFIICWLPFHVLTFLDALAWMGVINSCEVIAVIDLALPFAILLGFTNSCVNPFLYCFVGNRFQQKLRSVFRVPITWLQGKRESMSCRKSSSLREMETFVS

[8] = target: T5, Alpha-2A adrenergic receptor (Homo sapiens, UniProt P08913)
T5 sequence (P08913 whole entry): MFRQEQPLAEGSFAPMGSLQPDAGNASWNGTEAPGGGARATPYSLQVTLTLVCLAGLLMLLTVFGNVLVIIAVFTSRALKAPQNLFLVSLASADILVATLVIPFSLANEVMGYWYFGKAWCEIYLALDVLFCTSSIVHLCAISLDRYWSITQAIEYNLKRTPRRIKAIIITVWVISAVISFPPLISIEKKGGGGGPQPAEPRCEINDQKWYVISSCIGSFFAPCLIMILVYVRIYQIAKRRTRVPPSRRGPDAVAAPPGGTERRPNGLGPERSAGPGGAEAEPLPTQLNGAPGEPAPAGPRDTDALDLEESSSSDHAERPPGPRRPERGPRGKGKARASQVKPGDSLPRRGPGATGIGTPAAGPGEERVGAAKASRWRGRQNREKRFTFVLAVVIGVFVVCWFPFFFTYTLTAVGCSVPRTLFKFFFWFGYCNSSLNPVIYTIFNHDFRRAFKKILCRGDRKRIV
Note: assay procedure not described here.

`CCCCCCCC(=O)N[C@H](CN1CCCC1)[C@H](O)c1ccc2c(c1)OCCO2` was tested, and the AC50 [1] was greater than 30 µM.

`C[C@]1(COc2ccc(N3CCC(Oc4ccc(OC(F)(F)F)cc4)CC3)cc2)Cn2cc([N+](=O)[O-])nc2O1` showed an AC50 [2] greater than 10 µM.

With `C[C@]12CC[C@H](O)CC1=CC[C@@H]1[C@@H]2CC[C@]2(C)C(c3cccnc3)=CC[C@@H]12` [ABIRATERONE] the AC50 [2] was greater than 10 µM.

With `CC(=O)OCC[N+](C)(C)C` [ACETYLCHOLINE] the AC50 [2] was greater than 10 µM.

In the case of `O=C(Nc1nc(-c2cc(Cl)cs2)c(N2CCN(C3CCCCC3)CC2)s1)c1cnc(N2CCC(C(=O)O)CC2)c(Cl)c1` [AVATROMBOPAG], the AC50 (Cannabinoid receptor 1) is reported as greater than 10 µM, the AC50 (Substance-K receptor) is reported as greater than 10 µM and the AC50 [3] is reported as greater than 10 µM. For the same compound, the AC50 [2] was greater than 10 µM, the AC50 [4] was greater than 10 µM and the AC50 (D(1B) dopamine receptor) was greater than 10 µM. The AC50 [1] was greater than 30 µM.

In the case of `C[C@H]1C[C@H]2[C@@H]3CCC4=CC(=O)C=C[C@]4(C)[C@@]3(Cl)[C@@H](O)C[C@]2(C)[C@@]1(O)C(=O)CO` [BECLOMETHASONE], the AC50 [5] is reported as greater than 10 µM.

In the case of `CO[C@@]1(NC(=O)CSCC#N)C(=O)N2C(C(=O)O)=C(CSc3nnnn3C)CS[C@@H]21` [CEFMETAZOLE], the AC50 [6] is reported as greater than 30 µM.

Compound `CO/N=C(\C(=O)N[C@@H]1C(=O)N2C(C(=O)[O-])=C(C[n+]3cccc4c3CCC4)CS[C@H]12)c1csc(N)n1` [CEFPIROME] has an AC50 [6] greater than 30 µM.

`NS(=O)(=O)c1cc(C2(O)NC(=O)c3ccccc32)ccc1Cl` (stereo not given) [CHLORTHALIDONE] showed an AC50 [7] greater than 100 µM.

Work on `Oc1c(I)cc(Cl)c2cccnc12` [CLIOQUINOL] yielded an AC50 [6] greater than 30 µM and an AC50 [1] greater than 30 µM.

For `CCn1cc(C(=O)O)c(=O)c2cc(F)c(N3CCNCC3)nc21` [ENOXACIN], the AC50 (Cannabinoid receptor 1) was greater than 10 µM, the AC50 (Substance-K receptor) was greater than 10 µM and the AC50 [3] was greater than 10 µM. It also gave an AC50 [4] greater than 10 µM and an AC50 (D(1B) dopamine receptor) greater than 10 µM.

Work on `CCC(=O)O[C@@H]1CC(=O)O[C@H](C)C/C=C/C=C/[C@H](OC(C)=O)[C@H](C)C[C@H](CC=O)[C@H](O[C@@H]2O[C@H](C)[C@@H](O[C@H]3C[C@@](C)(OC(C)=O)[C@@H](OC(=O)CC)[C@H](C)O3)[C@H](N(C)C)[C@H]2O)[C@H]1OC` [MIOCAMYCIN] yielded an AC50 [1] greater than 30 µM.

Work on `c1ccc2c(CC3=NCCN3)cccc2c1` [NAPHAZOLINE] yielded an AC50 [8] of 0.0087 µM.

Work on `C1CNCCN1` [PIPERAZINE] yielded an AC50 [1] greater than 30 µM.

Compound `NS(=O)(=O)c1cc(C(=O)O)cc(N2CCCC2)c1Oc1ccccc1` [PIRETANIDE] has an AC50 [7] greater than 100 µM.

With `COCCCOc1ccnc(C[S+]([O-])c2nc3ccccc3[nH]2)c1C` (stereo not given) [RABEPRAZOLE] the AC50 [5] was greater than 10 µM.

In the case of `O=C(CCCN1CCC2(CC1)C(=O)NCN2c1ccccc1)c1ccc(F)cc1` [SPIPERONE], the AC50 [6] is reported as greater than 30 µM and the AC50 [8] is reported as 17 µM.

`OCCN1CCN(CC/C=C2/c3ccccc3Sc3ccc(Cl)cc32)CC1` [ZUCLOPENTHIXOL] showed an AC50 [2] of 0.0046 µM.
